Source: ChEMBL document CHEMBL5365534, “Discovery of a Novel Ketohexokinase Inhibitor with Improved Drug Distribution in Target Tissue for the Treatment of Fructose Metabolic Disease” (J Med Chem, 2023)

Assays:
in vivo [1] = settings: Sprague-Dawley, rat, spleen, po, 10 mg/kg
Description: Drug concentration in Sprague-Dawley rat spleen at 10 mg/kg, po administered as single dose measured upto 24 hrs by LC-MS/MS analysis

[2] = Drug metabolism in dog hepatocytes assessed as glucuronidation metabolite at 10 uM measured upto 240 mins by LC-MS/MS analysis; assay type: ADME, cell-based, Canis lupus familiaris, Hepatocyte; settings: 4 h
Cytochrome P450 1A2 [3] = target: T1, Cytochrome P450 1A2 (Homo sapiens, UniProt P05177); experiment: Time dependent inhibition of CYP1A2 in human liver microsomes at 10 uM preincubated for 30 mins followed by substrate addition and measured after 15 mins in presence of NADPH by LC-MS/MS analysis; assay type: ADME, Microsome
T1 sequence (P05177 whole entry): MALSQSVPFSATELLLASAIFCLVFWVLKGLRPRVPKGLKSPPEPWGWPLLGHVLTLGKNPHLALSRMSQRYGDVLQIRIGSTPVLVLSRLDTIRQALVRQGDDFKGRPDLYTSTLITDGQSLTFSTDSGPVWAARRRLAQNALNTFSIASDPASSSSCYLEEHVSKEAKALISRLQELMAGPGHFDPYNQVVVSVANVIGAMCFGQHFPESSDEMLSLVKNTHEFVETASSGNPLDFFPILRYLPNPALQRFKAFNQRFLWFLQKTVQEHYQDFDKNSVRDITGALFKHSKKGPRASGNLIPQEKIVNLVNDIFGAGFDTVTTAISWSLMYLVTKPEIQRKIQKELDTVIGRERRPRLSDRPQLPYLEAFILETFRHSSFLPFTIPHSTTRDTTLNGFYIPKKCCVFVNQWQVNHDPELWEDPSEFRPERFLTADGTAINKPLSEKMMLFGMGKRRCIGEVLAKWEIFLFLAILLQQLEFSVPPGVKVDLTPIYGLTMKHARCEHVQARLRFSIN

in vitro [4] = settings: human, Caco-2
Description: Efflux ratio of apparent permeability across basolateral to apical membrane over apical to basolateral membrane in human Caco-2 cells

[5] = Metabolic stability in mouse hepatocyte assessed as parent compound remaining at 10 uM measured after 4 hrs by LC-MS/MS analysis; assay type: ADME, cell-based; settings: hepatocytes, read-out: Stability
[6] = AUC (0 to infinity) in Sprague-Dawley rat at 10 mg/kg, po administered as single dose measured upto 24 hrs by LC-MS/MS analysis; assay type: ADME, organism-based; parameters: dose 10 mg/kg, time < 24 hrs, route po; settings: in vivo
physchem = settings: buffer, pH 7.4
in vitro [7] = settings: dog, liver microsomes
in vitro [8] = settings: human, Caco-2; remark: listed apart in the source
Description: Apparent permeability of the compound across apical side to basolateral side in human Caco-2 cells at 10 uM incubated for 2 hrs by LC-MS/MS analysis

in vitro [9] = settings: rhesus monkey, liver microsomes
[10] = Drug metabolism in mouse hepatocytes assessed as glycine conjugation metabolite at 10 uM measured upto 240 mins by LC-MS/MS analysis; assay type: ADME, cell-based, Hepatocyte; settings: 4 h
[11] = MRT (0 to t) in Beagle dog at 1 mg/kg, iv administered as single dose measured upto 24 hrs by LC-MS/MS analysis; assay type: ADME, organism-based, Canis lupus familiaris; settings: in vivo
Cytochrome P450 2C19 = Cytochrome P450 2C19 (Homo sapiens, UniProt P33261)
Chain of Cytochrome P450 2C19 (P33261 whole entry): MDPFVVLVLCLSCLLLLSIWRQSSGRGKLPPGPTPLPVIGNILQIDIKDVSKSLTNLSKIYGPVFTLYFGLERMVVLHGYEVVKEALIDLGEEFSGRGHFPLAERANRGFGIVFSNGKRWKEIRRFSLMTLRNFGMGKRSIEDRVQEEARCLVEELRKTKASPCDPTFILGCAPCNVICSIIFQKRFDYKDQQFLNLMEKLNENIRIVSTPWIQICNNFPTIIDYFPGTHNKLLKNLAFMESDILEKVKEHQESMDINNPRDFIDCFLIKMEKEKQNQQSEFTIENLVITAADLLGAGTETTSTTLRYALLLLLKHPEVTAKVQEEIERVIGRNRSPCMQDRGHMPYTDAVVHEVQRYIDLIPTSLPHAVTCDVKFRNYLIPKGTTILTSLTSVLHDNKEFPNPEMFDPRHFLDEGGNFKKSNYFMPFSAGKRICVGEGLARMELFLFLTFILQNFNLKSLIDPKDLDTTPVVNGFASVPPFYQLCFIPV
Description: Inhibition of CYP2C19 in human liver microsomes at 0.1 to 30 uM measured for 5 mins in presence of NADPH by LC-MS/MS analysis

[12] = Metabolic stability in human hepatocyte assessed as parent compound remaining at 10 uM measured after 4 hrs by LC-MS/MS analysis; assay type: ADME, cell-based; settings: hepatocytes, read-out: Stability
[13] = Drug metabolism in monkey hepatocytes assessed as oxidation/hydrogenation/decarboxylation metabolite at 10 uM measured upto 240 mins by LC-MS/MS analysis; assay type: ADME, cell-based, Macaca mulatta, Hepatocyte; settings: rhesus monkey, 4 h
in vitro [14] = settings: human, HepG2 cells
Description: Mitotoxicity in human HepG2 cells incubated for 2 hrs by Celltiter-Glo assay

[15] = target: Voltage-gated inwardly rectifying potassium channel KCNH2 (Homo sapiens, UniProt Q12809)
Chain of Voltage-gated inwardly rectifying potassium channel KCNH2 (Q12809 whole entry): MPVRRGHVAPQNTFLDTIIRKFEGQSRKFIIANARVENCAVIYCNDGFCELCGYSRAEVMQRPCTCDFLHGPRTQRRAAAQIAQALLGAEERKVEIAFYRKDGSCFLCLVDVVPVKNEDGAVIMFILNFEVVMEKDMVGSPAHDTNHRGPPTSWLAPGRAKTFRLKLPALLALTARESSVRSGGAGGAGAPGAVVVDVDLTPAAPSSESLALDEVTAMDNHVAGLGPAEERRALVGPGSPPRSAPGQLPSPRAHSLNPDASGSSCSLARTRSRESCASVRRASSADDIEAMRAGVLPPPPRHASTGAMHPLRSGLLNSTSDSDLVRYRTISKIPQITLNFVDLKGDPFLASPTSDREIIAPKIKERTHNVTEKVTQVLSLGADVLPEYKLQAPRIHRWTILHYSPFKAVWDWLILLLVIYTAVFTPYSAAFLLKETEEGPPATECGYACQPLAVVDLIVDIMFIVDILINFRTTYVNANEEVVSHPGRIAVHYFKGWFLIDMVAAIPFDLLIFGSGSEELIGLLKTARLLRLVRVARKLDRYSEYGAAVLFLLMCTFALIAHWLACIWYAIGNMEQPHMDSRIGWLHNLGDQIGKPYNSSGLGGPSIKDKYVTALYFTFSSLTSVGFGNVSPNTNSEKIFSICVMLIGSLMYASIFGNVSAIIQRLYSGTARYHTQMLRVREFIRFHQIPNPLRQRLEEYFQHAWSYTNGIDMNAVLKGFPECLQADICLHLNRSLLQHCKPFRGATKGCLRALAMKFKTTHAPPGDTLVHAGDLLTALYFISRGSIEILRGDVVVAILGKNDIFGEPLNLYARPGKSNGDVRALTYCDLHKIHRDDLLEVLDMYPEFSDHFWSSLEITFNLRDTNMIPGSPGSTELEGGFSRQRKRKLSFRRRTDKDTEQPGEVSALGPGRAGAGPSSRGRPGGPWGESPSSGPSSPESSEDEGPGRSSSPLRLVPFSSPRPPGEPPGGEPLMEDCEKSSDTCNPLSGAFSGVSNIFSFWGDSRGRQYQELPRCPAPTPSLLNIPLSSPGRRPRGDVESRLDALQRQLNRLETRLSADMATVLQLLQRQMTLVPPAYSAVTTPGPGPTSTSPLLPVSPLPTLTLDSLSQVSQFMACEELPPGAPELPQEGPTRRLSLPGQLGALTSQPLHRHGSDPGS
Description: Inhibition of human ERG expressed in HEK293 cells by manual-patch clamp assay

[16] = AUC (0 to infinity) in Beagle dog at 1 mg/kg, iv administered as single dose measured upto 24 hrs by LC-MS/MS analysis; assay type: ADME, organism-based, Canis lupus familiaris; parameters: time < 24 hrs, dose 1 mg/kg, route iv; settings: in vivo
in vitro [17] = settings: rat, liver microsomes
[18] = Oral bioavailability in Beagle dog at 5 mg/kg administered as single dose measured upto 24 hrs by LC-MS/MS analysis; assay type: ADME, organism-based, Canis lupus familiaris; settings: in vivo
PXR = target: T2, PXR (Homo sapiens, UniProt O75469); experiment: in vitro
T2 sequence (O75469 whole entry): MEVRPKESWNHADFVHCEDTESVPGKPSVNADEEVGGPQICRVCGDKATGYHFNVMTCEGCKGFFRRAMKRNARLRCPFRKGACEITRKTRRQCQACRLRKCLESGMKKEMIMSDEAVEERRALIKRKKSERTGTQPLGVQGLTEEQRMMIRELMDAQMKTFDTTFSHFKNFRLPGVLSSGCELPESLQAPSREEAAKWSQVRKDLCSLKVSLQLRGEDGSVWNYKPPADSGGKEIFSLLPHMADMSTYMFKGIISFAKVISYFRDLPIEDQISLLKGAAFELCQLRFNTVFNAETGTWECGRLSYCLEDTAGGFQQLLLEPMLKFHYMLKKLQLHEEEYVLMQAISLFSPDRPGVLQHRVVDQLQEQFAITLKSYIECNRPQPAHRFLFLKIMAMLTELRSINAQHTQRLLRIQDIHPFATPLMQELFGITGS
Description: Activation of PXR (unknown origin) at 30 uM relative to control

Cytochrome P450 3A4 = Cytochrome P450 3A4 (Homo sapiens, UniProt P08684)
Chain of Cytochrome P450 3A4 (P08684 whole entry): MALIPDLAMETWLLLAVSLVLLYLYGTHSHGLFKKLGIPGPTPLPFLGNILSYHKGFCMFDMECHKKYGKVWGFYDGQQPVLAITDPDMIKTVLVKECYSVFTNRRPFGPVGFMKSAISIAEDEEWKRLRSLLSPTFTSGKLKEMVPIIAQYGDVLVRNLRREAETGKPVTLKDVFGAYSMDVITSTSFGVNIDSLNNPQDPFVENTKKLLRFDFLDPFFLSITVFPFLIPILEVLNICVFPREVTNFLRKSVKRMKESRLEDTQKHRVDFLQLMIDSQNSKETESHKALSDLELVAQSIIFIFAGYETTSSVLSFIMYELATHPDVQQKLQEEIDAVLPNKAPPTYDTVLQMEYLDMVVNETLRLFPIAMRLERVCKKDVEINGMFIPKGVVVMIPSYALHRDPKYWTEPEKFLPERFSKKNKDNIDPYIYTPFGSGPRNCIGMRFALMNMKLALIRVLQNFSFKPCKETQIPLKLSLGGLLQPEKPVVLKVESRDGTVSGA
Description: Inhibition of CYP3A4 in human liver microsomes at 0.1 to 30 uM measured for 5 mins in presence of NADPH by LC-MS/MS analysis

[19] = AUC (0 to t) in Sprague-Dawley rat at 10 mg/kg, iv administered as single dose measured upto 24 hrs by LC-MS/MS analysis; assay type: ADME, organism-based; parameters: dose 10 mg/kg, time < 24 hrs, route iv; settings: in vivo
in vivo [20] = settings: Sprague-Dawley, rat, liver, po, 10 mg/kg
Description: Drug concentration in Sprague-Dawley rat liver at 10 mg/kg, po administered as single dose measured upto 24 hrs by LC-MS/MS analysis

[21] = Drug metabolism in rat hepatocytes assessed as glycine conjugation metabolite at 10 uM measured upto 240 mins by LC-MS/MS analysis; assay type: ADME, cell-based, Hepatocyte; settings: 4 h
HepG2 = experiment: cells; settings: Homo sapiens, HepG2, 3 h
Description: Antiproliferative activity against human HepG2 cells incubated for 3 hrs by LC-MS analysis

in vivo [22] = settings: Sprague-Dawley, rat, liver/plasma, po, 10 mg/kg
Description: Ratio of drug concentration in Sprague-Dawley rat liver to plasma at 10 mg/kg, po administered as single dose measured upto 24 hrs by LC-MS/MS analysis

Cytochrome P450 1A2 [23] = target: T1, Cytochrome P450 1A2
Description: Inhibition of CYP1A2 in human liver microsomes at 0.1 to 30 uM measured for 5 mins in presence of NADPH by LC-MS/MS analysis

[24] = Drug metabolism in rat hepatocytes assessed as oxidation/hydrogenation/decarboxylation metabolite at 10 uM measured upto 240 mins by LC-MS/MS analysis; assay type: ADME, cell-based, Hepatocyte; settings: 4 h
[25] = Drug metabolism in mouse hepatocytes assessed as oxidation/hydrogenation/decarboxylation metabolite at 10 uM measured upto 240 mins by LC-MS/MS analysis; assay type: ADME, cell-based, Hepatocyte; settings: 4 h
in vivo [26] = settings: Sprague-Dawley, rat, kidney, po, 10 mg/kg
Description: Drug concentration in Sprague-Dawley rat kidney at 10 mg/kg, po administered as single dose measured upto 24 hrs by LC-MS/MS analysis

Cytochrome P450 2D6 = Cytochrome P450 2D6 (Homo sapiens, UniProt P10635); experiment: Time dependent inhibition of CYP2D6 in human liver microsomes at 10 uM preincubated for 30 mins followed by substrate addition and measured after 15 mins in presence of NADPH by LC-MS/MS analysis; assay type: ADME, Microsome
Chain of Cytochrome P450 2D6 (P10635 whole entry): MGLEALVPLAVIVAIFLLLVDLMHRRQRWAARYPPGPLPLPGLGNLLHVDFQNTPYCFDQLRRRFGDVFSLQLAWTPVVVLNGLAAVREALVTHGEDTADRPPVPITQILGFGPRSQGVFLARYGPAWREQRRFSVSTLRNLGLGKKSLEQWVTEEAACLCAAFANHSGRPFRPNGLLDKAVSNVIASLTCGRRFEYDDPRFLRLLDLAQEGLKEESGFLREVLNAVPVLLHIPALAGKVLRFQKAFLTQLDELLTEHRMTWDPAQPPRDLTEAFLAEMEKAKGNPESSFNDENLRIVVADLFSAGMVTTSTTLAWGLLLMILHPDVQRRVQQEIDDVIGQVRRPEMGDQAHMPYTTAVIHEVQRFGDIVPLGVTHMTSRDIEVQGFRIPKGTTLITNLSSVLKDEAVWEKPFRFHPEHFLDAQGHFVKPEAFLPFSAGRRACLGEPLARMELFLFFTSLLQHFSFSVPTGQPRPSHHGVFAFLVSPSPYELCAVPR

[27] = Clearance in Sprague-Dawley rat at 10 mg/kg, iv administered as single dose measured upto 24 hrs by LC-MS/MS analysis; assay type: ADME, organism-based; settings: in vivo

In the case of C[C@H]1CCN1c1nc(N2CC[C@H](CCC(=O)O)C2)c2c(n1)C(F)(F)CC2, the concentration at 24 h (in vivo [1]) is reported as 1140 ng/g, the Drug metabolism [2] is reported as “Metabolite_Notdetected” and the IC50 (Cytochrome P450 1A2 [3]) is reported as greater than 10 µM. The efflux ratio (in vitro [4]) was 7.45, the remaining at 4 h, 10 µM [5] was 96.6% and the AUC [6] was 44400 ng·h/mL. It also gave a logD (physchem) of 0.14, a microsomal CLint at 2 h, 1 µM (in vitro [7]) of less than 6.4 µL/min/mg and a Papp A→B at 2 h, 10 µM (in vitro [8]) of 3.64 ×10⁻⁶ cm/s. For the same compound, the microsomal CLint at 2 h, 1 µM (in vitro [9]) was 10.2 µL/min/mg, the Drug metabolism [10] was “Metabolite_Notdetected” and the MRT last at 24 h [11] was 4.61 h. For the same compound, the IC50 (Cytochrome P450 2C19) was greater than 30 µM, the remaining at 4 h, 10 µM [12] was 98.5% and the Drug metabolism [13] was “Metabolite_Notdetected”. The IC50 at 2 h (in vitro [14]) was greater than 150 µM, the IC50 [15] was greater than 30 µM and the AUC [16] was 5580 ng·h/mL. For the same compound, the microsomal CLint at 2 h, 1 µM (in vitro [17]) was less than 6.4 µL/min/mg, the bioavailability [18] was 122% and the activity at 30 µM (PXR) was 0.96%. For the same compound, the IC50 (Cytochrome P450 3A4) was greater than 30 µM, the AUCt [19] was 73000 ng·h/mL and the concentration at 24 h (in vivo [20]) was 50100 ng/g. The Drug metabolism [21] was “Metabolite_Notdetected”, the IC50 (HepG2) was 0.196 µM and the Kp at 24 h (in vivo [22]) was 9.9. For the same compound, the IC50 (Cytochrome P450 1A2 [23]) was greater than 30 µM, the Drug metabolism [24] was “Metabolite_Notdetected” and the Drug metabolism [25] was “Metabolite_Notdetected”. It also gave a concentration at 24 h (in vivo [26]) of 11000 ng/g, an IC50 (Cytochrome P450 2D6) greater than 10 µM and a clearance [27] of 2.52 mL/min/kg.
